ChEMBL document CHEMBL4765288, “Synthesis of novel monocarbonyl curcuminoids, evaluation of their efficacy against MRSA, including ex vivo infection model and their mechanistic studies” (Eur J Med Chem, 2020)
In brackets after ≈: the same amount, converted by molar mass. Activity calls are given as the source filed them. The calls are words filed in the database; no cut-off is given here. Positions of bridges follow the written chain, without caps; N, C: chain ends. Non-standard residues stand in square brackets, D forms with d. Residues, ends and D or L forms follow the SMILES beside them. *: point of attachment. X1 = CC[C@H](C)CCCCC(=O)*; Dab = NCC[C@H](N)C(=O)O

Key:
[1] = tested on: Escherichia coli; test: Antibacterial activity against Escherichia coli ATCC 25922 after 16 to 18 hrs by CLSI-based microbroth dilution method; format: functional; settings: time 16-18 hrs
[2] = tested on: Escherichia coli; test: Antibacterial activity against Escherichia coli ATCC 11775 after 16 to 18 hrs by CLSI-based microbroth dilution method; format: functional; settings: time 16-18 hrs
[3] = tested on: Escherichia coli; test: Antibacterial activity against Escherichia coli E-52 after 16 to 18 hrs by CLSI-based microbroth dilution method; format: functional; settings: time 16-18 hrs
[4] = tested on: Escherichia coli; test: Antibacterial activity against Escherichia coli E-74 after 16 to 18 hrs by CLSI-based microbroth dilution method; format: functional; settings: time 16-18 hrs
[5] = tested on: Escherichia coli; test: Antibacterial activity against Escherichia coli E-59 after 16 to 18 hrs by CLSI-based microbroth dilution method; format: functional; settings: time 16-18 hrs
[6] = tested on: Staphylococcus aureus; test: Antibacterial activity against methicillin resistant Staphylococcus aureus S-30 after 16 to 18 hrs by CLSI-based microbroth dilution method; format: functional; settings: time 16-18 hrs
[7] = tested on: Staphylococcus aureus; test: Antibacterial activity against methicillin resistant Staphylococcus aureus S-41 after 16 to 18 hrs by CLSI-based microbroth dilution method; format: functional; settings: time 16-18 hrs
[8] = tested on: Staphylococcus aureus; test: Antibacterial activity against methicillin resistant Staphylococcus aureus S-34 after 16 to 18 hrs by CLSI-based microbroth dilution method; format: functional; settings: time 16-18 hrs
[9] = tested on: Staphylococcus aureus; test: Antibacterial activity against methicillin resistant Staphylococcus aureus S-33 after 16 to 18 hrs by CLSI-based microbroth dilution method; format: functional; settings: time 16-18 hrs
[10] = tested on: Staphylococcus aureus; test: Antibacterial activity against methicillin susceptible Staphylococcus aureus ATCC 29213 after 16 to 18 hrs by CLSI-based microbroth dilution method; format: functional; settings: time 16-18 hrs
[11] = tested on: Staphylococcus aureus; test: Antibacterial activity against methicillin resistant Staphylococcus aureus S-37 after 16 to 18 hrs by CLSI-based microbroth dilution method; format: functional; settings: time 16-18 hrs
[12] = tested on: Staphylococcus aureus; test: Antibacterial activity against methicillin resistant Staphylococcus aureus ATCC 33591 after 16 to 18 hrs by CLSI-based microbroth dilution method; format: functional; settings: time 16-18 hrs
[13] = tested on: Staphylococcus aureus; test: Antibacterial activity against methicillin resistant Staphylococcus aureus ATCC S-28 after 16 to 18 hrs by CLSI-based microbroth dilution method; format: functional; settings: time 16-18 hrs
[14] = tested on: Cell membrane; test: Induction of cell membrane damage in Staphylococcus aureus ATCC 33591 assessed as membrane surface perturbation with multiple dent and bleb formation at 5 times MIC after 4 hrs by scanning electron microscopy; format: subcellular
[15] = tested on: Cell membrane; test: Induction of cell membrane damage in Staphylococcus aureus ATCC 33591 at 5 times MIC assessed as loss of cell viability measured after 2 hrs by confocal microscopy
[16] = tested on: Cell membrane; test: Induction of cytoplasmic membrane depolarization in methicillin resistant Staphylococcus aureus ATCC 33591 at 5 times MIC by [DiSC3(5)] probe based fluorescence assay relative to control; format: subcellular; settings: time 2.0 hrs
[17] = tested on: Cell membrane; test: Induction of cytoplasmic membrane permeabilization in Staphylococcus aureus ATCC 33591 at 5 times MIC measured after 2 min using calcein-AM as substrate by dye based fluorescence assay relative to control; format: subcellular
[18] = Cytotoxicity against mouse 3T3 cells assessed as reduction in cell viability at 150 ug/ml after 4 hrs by MTT assay (reference value: 90.42 +/- 0.03%); format: cell-based; settings: at 150 µg/mL, read-out: Activity
[19] = Hemolytic activity in mouse RBC at 150 ug/ml after 1 hr by microplate reader analysis relative to control; format: ADME, cell-based, Erythrocyte; settings: mouse red blood cells (erythrocytes), at 150 µg/mL, read-out: Activity
[20] = tested on: Staphylococcus aureus; test: Bactericidal activity against methicillin-resistant Staphylococcus aureus assessed as in viable cells at 5 times MIC measured after 1 hr by time-kill assay; format: functional
[21] = Cytotoxicity against mouse 3T3 cells assessed as reduction in cell viability at 75 ug/ml after 4 hrs by MTT assay (reference value: 90.42 +/- 0.03%); format: cell-based; settings: 3t3, 4 h, at 75 µg/mL
[22] = tested on: Cell membrane; test: Induction of cytoplasmic membrane permeabilization in Staphylococcus aureus ATCC 33591 at 5 times MIC measured after 120 min using calcein-AM as substrate by dye based fluorescence assay relative to control; format: subcellular
[23] = tested on: Staphylococcus aureus; test: Antibacterial activity against methicillin susceptible Staphylococcus aureus ATCC 29213 infected in mouse 3T3 cells assessed as bacterial load at 5 times MIC after 16 hrs (reference value: 6.6 log CFU/ml); format: functional
[24] = Hemolytic activity in mouse RBC at 75 ug/ml after 1 hr by microplate reader analysis relative to control; format: ADME, cell-based, Erythrocyte; settings: mouse red blood cells (erythrocytes), at 75 µg/mL, read-out: Activity

With `CN[C@H](CC(C)C)C(=O)N[C@H]1C(=O)N[C@@H](CC(N)=O)C(=O)N[C@H]2C(=O)N[C@H]3C(=O)N[C@H](C(=O)N[C@H](C(=O)O)c4cc(O)cc(O)c4-c4cc3ccc4O)[C@H](O)c3ccc(c(Cl)c3)Oc3cc2cc(c3O[C@@H]2O[C@H](CO)[C@@H](O)[C@H](O)[C@H]2O[C@H]2C[C@](C)(N)[C@H](O)[C@H](C)O2)Oc2ccc(cc2Cl)[C@H]1O` [VANCOMYCIN] as the compound, how does the MIC [1] read?
Its MIC is 64 µg/mL (≈ 44.2 µM).

And the MIC [2]?
Its MIC is 64 µg/mL (≈ 44.2 µM).

And the MIC [3]?
Its MIC is 128 µg/mL (≈ 88.3 µM).

And the MIC [4]?
Its MIC is 128 µg/mL (≈ 88.3 µM).

And the MIC [5]?
The MIC was 128 µg/mL (≈ 88.3 µM).

For `CC[C@H](C)CCCCC(=O)N[C@@H](CCN)C(=O)N[C@H](C(=O)N[C@@H](CCN)C(=O)N[C@H]1CCNC(=O)[C@H]([C@@H](C)O)NC(=O)[C@H](CCN)NC(=O)[C@H](CCN)NC(=O)[C@H](CC(C)C)NC(=O)[C@@H](Cc2ccccc2)NC(=O)[C@H](CCN)NC1=O)[C@@H](C)O` (X1-[Dab]T[Dab][Dab][Dab][dF]L[Dab][Dab]T; lactam 4-C), which MIC [1] is on record?
Its MIC is 0.5 µg/mL (≈ 0.415 µM).

What about the MIC [2] of the same compound?
The MIC was 0.5 µg/mL (≈ 0.415 µM).

And the MIC [3]?
Its MIC is 1 µg/mL (≈ 0.831 µM).

What about the MIC [4] of the same compound?
Its MIC is 1 µg/mL (≈ 0.831 µM).

What about the MIC [5] of the same compound?
The MIC was 1 µg/mL (≈ 0.831 µM).

With `Cc1onc(-c2ccccc2)c1C(=O)N[C@@H]1C(=O)N2[C@@H]1SC(C)(C)[C@@H]2C(=O)O` [OXACILLIN] as the compound, how does the MIC [6] read?
Its MIC is 128 µg/mL (≈ 319 µM).

And the MIC [7]?
Its MIC is 128 µg/mL (≈ 319 µM).

And the MIC [8]?
Its MIC is 128 µg/mL (≈ 319 µM).

What about the MIC [9] of the same compound?
Its MIC is 128 µg/mL (≈ 319 µM).

And the MIC [10]?
Its MIC is 0.5 µg/mL (≈ 1.25 µM).

What about the MIC [11] of the same compound?
The MIC was 128 µg/mL (≈ 319 µM).

What about the MIC [12] of the same compound?
Its MIC is 64 µg/mL (≈ 159 µM).

What about the MIC [13] of the same compound?
The MIC was 128 µg/mL (≈ 319 µM).

Which MIC [6] does the source give for `CCOc1cc(/C=C2\CC/C(=C\c3ccc(OCCCN4CCCC(C)C4)c(OCC)c3)C2=O)ccc1OCCCN1CCCC(C)C1.Cl.Cl` (configuration not stated) here?
The MIC was 8 µg/mL.

What about the MIC [7] of the same compound?
Its MIC is 8 µg/mL.

And the MIC [1]?
The MIC was 8 µg/mL.

And the MIC [8]?
Its MIC is 8 µg/mL.

And the MIC [9]?
Its MIC is 8 µg/mL.

What about the MIC [10] of the same compound?
Its MIC is 2 µg/mL.

What about the MIC [11] of the same compound?
The MIC was 8 µg/mL.

What about the Activity [14] of the same compound?
Its Activity is “Active”.

And the Activity [15]?
The Activity was “Active”.

And the MIC [12]?
Its MIC is 4 µg/mL.

What about the Activity [16] of the same compound?
Its Activity is 87%.

What about the Activity [17] of the same compound?
The Activity was 60.2%.

And the viability at 4 h, 150 ug/ml [18]?
The viability at 4 h, 150 ug/ml was 14.8%.

What about the MIC [2] of the same compound?
Its MIC is 8 µg/mL.

And the hemolysis at 1 h, 150 ug/ml [19]?
The hemolysis at 1 h, 150 ug/ml was 9.32%.

And the MIC [3]?
Its MIC is 16 µg/mL.

And the Activity [20]?
The Activity was -3.4 log10CFU/ml.

And the Activity [21]?
The Activity was 7.03%.

And the Activity [22]?
The Activity was 92.7%.

What about the MIC [13] of the same compound?
Its MIC is 8 µg/mL.

And the MIC [4]?
The MIC was 32 µg/mL.

And the MIC [5]?
Its MIC is 32 µg/mL.

What about the Activity [23] of the same compound?
The Activity was 3.99 log10CFU/ml.

And the hemolysis at 1 h, 75 ug/ml [24]?
Its hemolysis at 1 h, 75 ug/ml is 6.19%.
